Reference: paper PMC6749389, “Synthesis and In Vitro Anti-Toxoplasma gondii Activity of Novel Thiazolidin-4-one Derivatives” (Molecules, 2019)

Compound | melting point [°C]
COc1cc(C=NN=C2SCC(=O)N2c2ccc(Cl)cc2)ccc1O [Compound 60, 3-(4-Chlorophenyl)-2-{[(4-hydroxy-3-methoxyphenyl)methylidene]hydrazinylidene}-1,3-thiazolidin-4-one] | 226 to 228
O=C1CSC(=NN=Cc2ccc(O)c(Br)c2)N1c1ccc(F)cc1 [Compound 73, 2-{[(3-Bromo-4-hydroxyphenyl)methylidene]hydrazinylidene}-3-(4-fluorophenyl)-1,3-thiazolidin-4-one] | 224 to 226
CCOc1cc(C=NN=C2SCC(=O)N2c2cccc(Cl)c2)ccc1O [Compound 56, 3-(3-Chlorophenyl)-2-{[(3-ethoxy-4-hydroxyphenyl)methylidene]hydrazinylidene}-1,3-thiazolidin-4-one] | 214 to 216
COc1cc(C=NN=C2SCC(=O)N2c2ccc(Cl)cc2Cl)ccc1O [Compound 64, 3-(2,4-Dichlorophenyl)-2-{[(4-hydroxy-3-methoxyphenyl)methylidene]hydrazinylidene}-1,3-thiazolidin-4-one] | 140 to 142
O=C1CSC(=NN=Cc2ccc(O)c(Cl)c2)N1c1ccc(Cl)cc1 [Compound 62, 2-{[(3-Chloro-4-hydroxyphenyl)methylidene]hydrazinylidene}-3-(4-chlorophenyl)-1,3-thiazolidin-4-one] | 231 to 233
O=C1CSC(=NN=Cc2ccccc2O)N1c1ccccc1Cl [Compound 48, 3-(2-Chlorophenyl)-2-{[(2-hydroxyphenyl)methylidene]hydrazinylidene}-1,3-thiazolidin-4-one] | 168 to 170
COc1cc(C=NN=C2SCC(=O)N2c2cccc(Cl)c2)ccc1O [Compound 55, 3-(3-Chlorophenyl)-2-{[(4-hydroxy-3-methoxyphenyl)methylidene]hydrazinylidene}-1,3-thiazolidin-4-one] | 210 to 212
O=C1CSC(=NN=Cc2ccccc2O)N1c1cccc(Cl)c1 [Compound 52, 3-(3-Chlorophenyl)-2-{[(2-hydroxyphenyl)methylidene]hydrazinylidene}-1,3-thiazolidin-4-one] | 194 to 196
COc1cc(C=NN=C2SCC(=O)N2c2ccc(F)cc2)ccc1O [Compound 70, 3-(4-Fluorophenyl)-2-{[(4-hydroxy-3-methoxyphenyl)methylidene]hydrazinylidene}-1,3-thiazolidin-4-one] | 236 to 238
O=C1CSC(=NN=Cc2ccc(O)c(Cl)c2)N1c1ccccc1 [Compound 46, 2-{[(3-Chloro-4-hydroxyphenyl)methylidene]hydrazinylidene}-3-phenyl-1,3-thiazolidin-4-one] | 215 to 216
O=C1CSC(=NN=Cc2ccccc2O)N1c1ccc(Cl)cc1 [Compound 57, 3-(4-Chlorophenyl)-2-{[(2-hydroxyphenyl)methylidene]hydrazinylidene}-1,3-thiazolidin-4-one] | 238 to 240
O=C1CSC(=NN=Cc2ccc(O)c(Br)c2)N1c1ccccc1 [Compound 47, 2-{[(3-Bromo-4-hydroxyphenyl)methylidene]hydrazinylidene}-3-phenyl-1,3-thiazolidin-4-one] | 216 to 218
CCOc1cc(C=NN=C2SCC(=O)N2c2ccccc2)ccc1O [Compound 45, 2-{[(3-Ethoxy-4-hydroxyphenyl)methylidene]hydrazinylidene}-3-phenyl-1,3-thiazolidin-4-one] | 229 to 230
CCOc1cc(C=NN=C2SCC(=O)N2c2ccc(F)cc2)ccc1O [Compound 71, 2-{[(3-Ethoxy-4-hydroxyphenyl)methylidene]hydrazinylidene}-3-(4-fluorophenyl)-1,3-thiazolidin-4-one] | 240 to 242
O=C1CSC(=NN=Cc2ccc(O)c(Cl)c2)N1c1ccc(F)cc1 [Compound 72, 2-{[(3-Chloro-4-hydroxyphenyl)methylidene]hydrazinylidene}-3-(4-fluorophenyl)-1,3-thiazolidin-4-one] | 222 to 224
